Marks after values point to notes of the source that are not given here.
Assays:
[1] = system: rat L-NAME-induced gestational toxicosis model; experiment: Confirmation of effects on gestational toxicosis (Test Example 2); type: in vivo
Description: A gestational toxicosis model was created as follows. A 17th -gestation day rat was anesthetized with ether. Then, the poll was incised approximately 10 mm to transplant in control group an osmotic pressure pump filled with L-NAME, and in the normal group, in the similar manner, an osmotic pressure pump filled with physiological saline in place of L-NAME. To the test group, in addition to the above pump, an osmotic pressure pump filled with bis(2-{[(2S)-2-({(2R)-2-hydroxy-2-[4-hydroxy-3-(2-hydroxyethyl)phenyl]ethyl}amino)-1,2,3,4-tetrahydronaphthalene-7-yl]oxy}-N,N-dimethylacetamide) monosulfate (the compound represented by the above formula (Ia)) was implanted. On the 20th gestation day, the mother animal was anesthetized with ether, and the fetus was extirpated. Severity of static gangrene at the tip of fetal extremities was examined, and the amount of maternal urinary albumin and plasma triglyceride level were measured.
While bis(2-{[(2S)-2-({(2R)-2-hydroxy-2-[4-hydroxy-3-(2-hydroxyethyl)phenyl]ethyl)amino)-1,2,3,4-tetrahydronaphthalene-7-yl]oxy)-N,N-dimethylacetamide) monosulfate was dissolved in physiological saline and an osmotic pressure pump with the dose of 200 μg/day was inserted, L-NAME was dissolved in physiological saline to make 200 mg/mL for filling and an osmotic pressure pump with the dose of 48 mg/day was inserted.

[2] = system: rat intrauterine growth retardation model induced by L-NAME; experiment: Confirmation of effects on IUGR (Test Example 1); type: in vivo
Description: IUGR model was created as follows in accordance with the method by Yallampalli et al. (Am J Obstet Gynecol, vol. 169: 1316-1320, 1993). A 17th-gestation day rat was anesthetized with ether. Then, the poll was incised approximately 10 mm to transplant in control group an osmotic pressure pump filled with L-NAME, and in the normal group, in the similar manner, an osmotic pressure pump filled with physiological saline in place of L-NAME. To the test group, in addition to the above pump, an osmotic pressure pump filled with bis(2-{[(2S)-2-({(2R)-2-hydroxy-2-[4-hydroxy-3-(2-hydroxyethyl)phenyl]ethyl}amino)-1,2,3,4-tetrahydronaphthalene-7-yl]oxy)-N,N-dimethylacetamide) monosulfate (the compound of the above formula (Ia)) was implanted. On the 20th gestation day, the mother animal was anesthetized with ether, and the fetus was extirpated and weighed. Maternal blood pressure was measured before ether anesthesia on the 17th and 20th gestation days. In statistical analysis, comparisons of control group with normal group or test group were conducted in F-test for variance. When there was equal variance, unpaired t-tests were performed. When there was unequal variance, Welch's test was performed.
Bis(2-{[(2S)-2-({(2R)-2-hydroxy-2-[4-hydroxy-3-(2-hydroxyethyl)phenyl]ethyl}amino)-1,2,3,4-tetrahydronaphthalene-7-yl]oxy}-N,N-dimethylacetamide) sulfate was dissolved in physiological saline and an osmotic pressure pump with the dose of 50 μg/day was inserted, while L-NAME was dissolved in physiological saline to make 50 mg/mL for filling and an osmotic pressure pump with the dose of 12 mg/day was inserted.

[3] = L-NAME 48 mg/day + compound 200 μg/day by osmotic pump from gestation day 17, examined on day 20
[4] = L-NAME 48 mg/day + compound 200 μg/day by osmotic pump, gestation day 20

CN(C)C(=O)COc1ccc2c(c1)C[C@@H](NC[C@H](O)c1ccc(O)c(CCO)c1)CC2 [formula (Ia), bis(2-{[(2S)-2-({(2R)-2-hydroxy-2-[4-hydroxy-3-(2-hydroxyethyl)phenyl]ethyl}amino)-1,2,3,4-tetrahydronaphthalene-7-yl]oxy}-N,N-dimethylacetamide) monosulfate]
Static gangrene in the tip of extremities (incidence %) [1, 3]: 8%
The number of static gangrene in the tip of extremities/The number of fetuses [1, 3]: 16/203
Maternal plasma triglyceride level [1, 4]: 143 µg/mL
Maternal urinary albumin level [1, 4]: 222.1# μg/mL
Change in maternal blood pressure after administration (effect on maternal heart) ([2]; 50 μg/day by osmotic pump, gestation days 17 to 20): no change in maternal blood pressure
Mean blood pressure of dam ([2]; Day 20 of gestation, L-NAME 12 mg/day + compound 50 μg/day by osmotic pump): 102.5 mmHg
Fetal body weight ([2]; pregnant rat, L-NAME 12 mg/day + compound 50 μg/day by osmotic pump from gestation day 17, fetus weighed on day 20): 3550 mg
